Experimental data from ChEMBL document CHEMBL3808391, “Evolution of a New Class of VEGFR-2 Inhibitors from Scaffold Morphing and Redesign” (ACS Med Chem Lett, 2016).
pIC50: −log10 of the molar value.

Biological target: Vascular endothelial growth factor receptor 2 (Homo sapiens, UniProt P35968)
Assay: Inhibition of KDR (unknown origin)

Vascular endothelial growth factor receptor 2, sequence (P35968 whole entry): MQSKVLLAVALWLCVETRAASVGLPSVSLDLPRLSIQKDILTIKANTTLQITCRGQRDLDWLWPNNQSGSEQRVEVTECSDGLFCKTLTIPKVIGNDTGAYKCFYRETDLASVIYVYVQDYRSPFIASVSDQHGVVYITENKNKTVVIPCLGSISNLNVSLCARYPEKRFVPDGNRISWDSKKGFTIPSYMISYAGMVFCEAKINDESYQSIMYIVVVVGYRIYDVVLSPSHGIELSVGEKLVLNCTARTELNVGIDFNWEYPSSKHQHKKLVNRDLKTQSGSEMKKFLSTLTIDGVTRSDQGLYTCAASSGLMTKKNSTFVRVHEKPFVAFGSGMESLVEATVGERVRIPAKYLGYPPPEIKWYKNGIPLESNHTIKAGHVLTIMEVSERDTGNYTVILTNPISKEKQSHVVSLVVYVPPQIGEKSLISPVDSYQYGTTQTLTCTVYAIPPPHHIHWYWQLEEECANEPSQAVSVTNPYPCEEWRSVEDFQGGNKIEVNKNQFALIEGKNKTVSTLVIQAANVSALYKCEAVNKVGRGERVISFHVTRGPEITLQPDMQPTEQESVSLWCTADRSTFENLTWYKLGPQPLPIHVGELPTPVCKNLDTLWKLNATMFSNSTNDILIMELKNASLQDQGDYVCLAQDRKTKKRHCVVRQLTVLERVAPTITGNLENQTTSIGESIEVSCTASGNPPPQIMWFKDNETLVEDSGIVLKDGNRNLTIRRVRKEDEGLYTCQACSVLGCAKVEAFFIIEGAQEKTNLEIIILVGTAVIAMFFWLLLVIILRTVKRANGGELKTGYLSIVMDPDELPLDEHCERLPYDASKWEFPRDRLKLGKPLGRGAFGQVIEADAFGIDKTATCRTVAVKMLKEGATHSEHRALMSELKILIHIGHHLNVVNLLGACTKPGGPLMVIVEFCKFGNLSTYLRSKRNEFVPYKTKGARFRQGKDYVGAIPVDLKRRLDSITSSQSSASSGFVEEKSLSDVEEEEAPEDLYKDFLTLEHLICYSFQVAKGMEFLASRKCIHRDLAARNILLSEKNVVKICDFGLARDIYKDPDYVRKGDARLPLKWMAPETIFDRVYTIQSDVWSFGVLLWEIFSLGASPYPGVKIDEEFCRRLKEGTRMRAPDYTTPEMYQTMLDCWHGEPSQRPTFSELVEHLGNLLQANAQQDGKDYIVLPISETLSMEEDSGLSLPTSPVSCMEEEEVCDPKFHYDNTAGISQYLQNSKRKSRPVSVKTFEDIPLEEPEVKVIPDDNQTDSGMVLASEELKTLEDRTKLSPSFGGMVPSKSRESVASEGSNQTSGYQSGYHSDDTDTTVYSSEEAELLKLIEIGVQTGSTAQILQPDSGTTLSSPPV

Compound	pIC50
Nc1cc(-c2ccc(NC(=O)Nc3cccc(C(F)(F)F)c3)cc2)on1	< 5.00
CC(C)(C)c1cc(NC(=O)Nc2ccc(-c3cc(N)no3)cc2)no1	< 5.00
